Source: patent publication US20230145835A1, “Modulators of Alpha-4-beta-7 Integrin and MAdCAM” (48HD Biopharma Inc., priority 2021, published 2023)
Like-named read-outs stand apart in the source and are kept apart here. Numbered stars: 1 amine (or outer) side, 2 acyl side, 3 side chain; on linkers, the order of the positions; unused ones are H or OH. Bridge positions count the residues as written; N and C are the ends. Square brackets hold non-standard residues; d marks the D form. Peptide text beside a SMILES is read from it. I, II: the chains in the order shown. CO(CH2CH2O)5CH2CH2CO = O=C(CCOCCOCCOCCOCCOCCC(=O)[*:2])[*:1]; X3 = O=C(/C=N/OCCCCCCOc1cc(C[*:2])cc(C[*:3])c1)[*:1]; X5 = O=C(CCCCCCOc1cc(C[*:2])cc(C[*:3])c1)[*:1]; X6 = CC[C@@H](C)C(N[*:1])C(=O)[*:2]; tBuAla = CC(C)(C)C[C@H](N)C(=O)O; Cba = N[C@@H](CC1CCC1)C(=O)O; hSer = N[C@@H](CCO)C(=O)O; Nle = CCCC[C@H](N)C(=O)O

Molecular target: T1, rh-integrin α4β7/LPAM-1 (Homo sapiens, UniProt P13612+P26010)
T1 sequence (P13612 34-977 limits assumed): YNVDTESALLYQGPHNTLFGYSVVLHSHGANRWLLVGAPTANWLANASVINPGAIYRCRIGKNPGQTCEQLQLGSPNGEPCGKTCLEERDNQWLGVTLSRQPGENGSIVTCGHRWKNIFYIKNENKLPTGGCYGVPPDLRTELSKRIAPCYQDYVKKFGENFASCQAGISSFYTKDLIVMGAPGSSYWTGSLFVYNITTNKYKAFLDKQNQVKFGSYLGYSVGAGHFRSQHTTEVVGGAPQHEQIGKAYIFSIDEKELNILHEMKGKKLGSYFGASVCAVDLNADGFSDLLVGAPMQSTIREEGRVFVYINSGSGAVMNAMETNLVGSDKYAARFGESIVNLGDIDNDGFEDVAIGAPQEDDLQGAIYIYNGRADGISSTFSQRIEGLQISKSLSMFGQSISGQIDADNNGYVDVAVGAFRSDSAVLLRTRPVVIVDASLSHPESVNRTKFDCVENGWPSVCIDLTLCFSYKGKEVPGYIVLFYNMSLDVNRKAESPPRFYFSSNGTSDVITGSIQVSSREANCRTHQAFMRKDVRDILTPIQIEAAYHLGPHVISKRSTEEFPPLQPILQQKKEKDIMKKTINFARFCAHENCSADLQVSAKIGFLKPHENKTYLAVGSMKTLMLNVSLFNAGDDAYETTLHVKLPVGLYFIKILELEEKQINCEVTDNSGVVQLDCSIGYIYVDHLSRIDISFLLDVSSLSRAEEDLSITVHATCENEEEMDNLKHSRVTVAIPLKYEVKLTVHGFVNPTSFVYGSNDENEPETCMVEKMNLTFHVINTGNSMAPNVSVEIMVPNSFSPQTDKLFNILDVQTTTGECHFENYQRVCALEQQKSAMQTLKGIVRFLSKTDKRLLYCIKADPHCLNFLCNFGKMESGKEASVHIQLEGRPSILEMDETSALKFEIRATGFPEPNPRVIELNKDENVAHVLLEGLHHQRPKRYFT
T1 sequence (P26010 20-723 limits assumed): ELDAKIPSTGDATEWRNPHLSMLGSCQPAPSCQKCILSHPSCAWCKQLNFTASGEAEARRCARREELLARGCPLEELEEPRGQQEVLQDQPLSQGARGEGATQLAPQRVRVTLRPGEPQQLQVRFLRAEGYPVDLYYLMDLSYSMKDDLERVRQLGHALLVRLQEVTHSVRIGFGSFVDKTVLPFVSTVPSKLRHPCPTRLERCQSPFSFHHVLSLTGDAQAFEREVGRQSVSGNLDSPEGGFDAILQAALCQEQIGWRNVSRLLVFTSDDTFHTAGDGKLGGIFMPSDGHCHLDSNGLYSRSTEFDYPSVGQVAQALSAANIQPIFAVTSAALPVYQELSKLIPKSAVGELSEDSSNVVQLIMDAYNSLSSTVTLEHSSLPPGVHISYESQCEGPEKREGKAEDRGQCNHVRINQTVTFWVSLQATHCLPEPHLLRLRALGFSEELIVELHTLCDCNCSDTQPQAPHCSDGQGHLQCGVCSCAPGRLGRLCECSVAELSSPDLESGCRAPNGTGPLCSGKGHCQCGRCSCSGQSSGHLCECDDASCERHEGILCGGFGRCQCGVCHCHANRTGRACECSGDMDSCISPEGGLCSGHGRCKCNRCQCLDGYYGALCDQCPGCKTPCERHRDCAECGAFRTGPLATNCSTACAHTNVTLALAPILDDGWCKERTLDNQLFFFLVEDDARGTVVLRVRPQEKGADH
Test: α4β7-MadCAM Competition ELISA (Example 4)
Type: binding
Settings: inhibition of MAdCAM binding to coated α4β7
Experimental: After washing with wash buffer, 200 μL assay buffer was added to each well and incubated for one hour at 28° C. After another wash with wash buffer, 100 μL of a MAdCAM and peptide mixture in assay buffer was added to each well and incubated for one hour at 28° C., followed by washing with wash buffer.

[1] = Table 3 Representative compounds, read-out: IC50

| SMILES | IC50 [1] [nM] | IC50 (IC50, Table 3 Representative compounds) [nM] |
| --- | --- | --- |
| CC[C@H](C)[C@@H]1NC(=O)[C@H](CC(=O)O)NC(=O)[C@H](CCSC)NC(=O)[C@@H]2CCCN2C(=O)[C@@H](NC(=O)[C@H](CCCNC(=N)N)NC(=O)[C@H](CO)NC(C)=O)CSSC[C@@H](C(N)=O)NC(=O)[C@H](CCC(=O)O)NC(=O)CNC(=O)[C@H](C)NC1=O [compound 36] (Ac-SRCPMDIAGEC-NH2; disulfide 3-11) | 932 |  |
| CC[C@H](C)[C@@H]1NC(=O)[C@H](CC(=O)O)NC(=O)[C@H](CCSC)NC(=O)[C@@H]2CCCN2C(=O)[C@@H]2CSCc3cc(cc(c3)OCCCCCCO/N=C/C(=O)N[C@@H](C)C(=O)N2)CSC[C@@H](C(N)=O)NC(=O)[C@H]([C@@H](C)O)NC(=O)[C@@H]2CCCN2C1=O [compound 37, TSL6- SACPMDIPTC] (ACPMDIPTC-NH2; linker N-2-9 via X3) | 943 |  |
| CC(C)C[C@@H]1NC(=O)[C@@H]2CCCN2C(=O)[C@@H]2CSCc3cc(cc(c3)OCCCCCCO/N=C/C(=O)N[C@@H](CCCNC(=N)N)C(=O)N2)CSC[C@@H](C(N)=O)NC(=O)[C@H](CCC(=O)O)NC(=O)[C@H](Cc2ccc(O)cc2)NC(=O)[C@H](C)NC(=O)[C@H]([C@@H](C)O)NC(=O)[C@H](CC(=O)O)NC1=O [compound 38, TSL6- SKCPLDTAYEC] (RCPLDTAYEC-NH2; linker N-2-10 via X3) | 1040 |  |
| CCCC[C@@H]1NC(=O)[C@@H]2CCCN2C(=O)[C@@H]2CSCc3cc(cc(c3)OCCCCCCO/N=C/C(=O)N[C@@H](CCCNC(=N)N)C(=O)N2)CSC[C@@H](C(N)=O)NC(=O)[C@H](CCC(=O)O)NC(=O)[C@H](Cc2ccc(O)cc2)NC(=O)[C@@H]2CCCN2C(=O)[C@H](CC(C)(C)C)NC(=O)[C@H](CC(=O)O)NC1=O [compound 39, TSL6-SRCP{Nle}D {tBuAla}PYEC] (RCP[Nle]D[tBuAla]PYEC-NH2; linker N-2-10 via X3) | 1130 |  |
| CC[C@H](C)[C@@H]1NC(=O)[C@H](CC(=O)O)NC(=O)[C@H](CCSC)NC(=O)[C@@H]2CCCN2C(=O)[C@@H]2CSCc3cc(cc(c3)OCCCCCCO/N=C/C(=O)N[C@@H](CCC(N)=O)C(=O)N2)CSC[C@@H](C(N)=O)NC(=O)[C@H]([C@@H](C)O)NC(=O)[C@@H]2CCCN2C1=O [compound 40, TSL6- SQCPMDIPTC] (QCPMDIPTC-NH2; linker N-2-9 via X3) | 1270 |  |
| CC(C)C[C@@H]1NC(=O)[C@@H]2CCCN2C(=O)[C@@H](NC(=O)[C@H](CCCCN)NC(=O)[C@@H](N)CO)CSSC[C@@H](C(N)=O)NC(=O)[C@H](CO)NC(=O)[C@@H]2CCCN2C(=O)[C@H](C(C)C)NC(=O)[C@H](CC(=O)O)NC1=O [compound 41] (H-SKCPLDVPSC-NH2; disulfide 3-10) | 1300 |  |
| CC(C)C[C@@H]1NC(=O)[C@@H]2CCCN2C(=O)[C@@H]2CSCc3cc(cc(c3)OCCCCCCO/N=C/C(=O)N[C@@H](CCCCN)C(=O)N2)CSC[C@@H](C(N)=O)NC(=O)[C@H](CCC(=O)O)NC(=O)[C@H](Cc2ccc(O)cc2)NC(=O)[C@@H]2CCCN2C(=O)[C@H](C)NC(=O)[C@H](CC(=O)O)NC1=O [compound 42, TSL6- SKCPLDAPYEC] (KCPLDAPYEC-NH2; linker N-2-10 via X3) | 1400 |  |
| CC[C@@H](C)C1NC(=O)[C@H](Cc2ccc(O)cc2)NC(=O)[C@H](CCCNC(=N)N)NC(=O)[C@H](CCC(=O)O)NC(=O)[C@H](C)NC(=O)[C@H](CC(=O)O)NC(=O)[C@@H]2CCCN2C(=O)[C@@H]2CSCc3cc(cc(c3)OCCCCCCO/N=C/C(=O)N[C@@H](CO)C(=O)N2)CSC[C@@H](C(N)=O)NC1=O (stereo partly drawn) [compound 44, TSL6- SDCPDAERYIC] (SCPDAERY[X6]C-NH2; linker N-2-10 via X3) | 1460 |  |
| CCCC[C@@H]1NC(=O)[C@@H]2CCCN2C(=O)[C@@H]2CSCc3cc(cc(c3)OCCCCCCC(=O)NCC(=O)N[C@@H](CCCCN)C(=O)N2)CSC[C@@H](C(N)=O)NC(=O)[C@H](CCC(=O)O)NC(=O)[C@H](CCC(N)=O)NC(=O)[C@H](Cc2c[nH]c3ccccc23)NC(=O)[C@H](CC2CCC2)NC(=O)[C@H](CC(=O)O)NC1=O [compound 45, TSLC7-GKCP{Nle}D {CbA}WQEC] (GKCP[Nle]D[Cba]WQEC-NH2; linker N-3-11 via X5) | 1610 |  |
| CC[C@H](C)[C@@H]1NC(=O)[C@H](CC(=O)O)NC(=O)[C@H](CCSC)NC(=O)[C@@H]2CCCN2C(=O)[C@@H]2CSCc3cc(cc(c3)OCCCCCCO/N=C/C(=O)N[C@@H](CCC(N)=O)C(=O)N2)CSC[C@@H](C(N)=O)NC(=O)[C@H](C)NC(=O)[C@@H]2CCCN2C1=O [compound 46, TSL6- SQCPMDIPAC] (QCPMDIPAC-NH2; linker N-2-9 via X3) | 1640 |  |
| CC[C@H](C)[C@@H]1NC(=O)[C@H](CC(=O)O)NC(=O)[C@H](CCSC)NC(=O)[C@@H]2CCCN2C(=O)[C@@H](NC(=O)[C@H](CCC(N)=O)NC(=O)[C@H](CO)NC(C)=O)CSSC[C@@H](C(N)=O)NC(=O)[C@H]([C@@H](C)O)NC(=O)[C@@H]2CCCN2C1=O [compound 47] (Ac-SQCPMDIPTC-NH2; disulfide 3-10) | 1700 |  |
| CC[C@H](C)[C@@H]1NC(=O)[C@H](CC(=O)O)NC(=O)[C@H](CCOC)NC(=O)[C@@H]2CCCN2C(=O)[C@@H]2CSCc3cc(cc(c3)OCCCCCCO/N=C/C(=O)N[C@@H](CCCNC(=N)N)C(=O)N2)CSC[C@@H](C(N)=O)NC(=O)[C@H](CCC(=O)O)NC(=O)[C@H](Cc2ccc(O)cc2)NC(=O)[C@H](Cc2c[nH]c3ccccc23)NC1=O [compound 48, TSL6- SRCP{Hse(OMe)} DIWYEC] (RCP[hSer](Me)DIWYEC-NH2; linker N-2-10 via X3) |  | 1710 |
| CC[C@H](C)[C@@H]1NC(=O)[C@H](CC(=O)O)NC(=O)[C@H](CCSC)NC(=O)[C@@H]2CCCN2C(=O)[C@@H](NC(=O)[C@H](CCCNC(=N)N)NC(=O)[C@H](CO)NC(C)=O)CSSC[C@@H](C(=O)N[C@@H](CCCCNC(=O)CCOCCOCCOCCOCCOCCC(=O)NCCCC[C@H](NC(=O)[C@@H]2CSSC[C@H](NC(=O)[C@H](CCCNC(=N)N)NC(=O)[C@H](CO)NC(C)=O)C(=O)N3CCC[C@H]3C(=O)N[C@@H](CCSC)C(=O)N[C@@H](CC(=O)O)C(=O)N[C@@H]([C@@H](C)CC)C(=O)N[C@@H](C)C(=O)NCC(=O)N[C@@H](CCC(=O)O)C(=O)N2)C(N)=O)C(N)=O)NC(=O)[C@H](CCC(=O)O)NC(=O)CNC(=O)[C@H](C)NC1=O [compound 49] (I: Ac-SRCPMDIAGECK-NH2 / II: Ac-SRCPMDIAGECK-NH2; disulfide I:3-I:11, II:3-II:11; linker I:12-II:12 via CO(CH2CH2O)5CH2CH2CO) | 1730 |  |
| CC(C)C[C@@H]1NC(=O)[C@@H]2CCCN2C(=O)[C@@H]2CSCc3cc(cc(c3)OCCCCCCO/N=C/C(=O)N[C@@H](CCCCN)C(=O)N2)CSC[C@@H](C(N)=O)NC(=O)[C@H](CO)NC(=O)[C@@H]2CCCN2C(=O)[C@H](C)NC(=O)[C@H](CC(=O)O)NC1=O [compound 50, TSL6- SKCPLDAPSC] (KCPLDAPSC-NH2; linker N-2-9 via X3) | 1740 |  |
| CCCC[C@@H]1NC(=O)[C@@H]2CCCN2C(=O)[C@@H]2CSCc3cc(cc(c3)OCCCCCCO/N=C/C(=O)N[C@@H](CCCNC(=N)N)C(=O)N2)CSC[C@@H](C(N)=O)NC(=O)[C@H](CCC(=O)O)NC(=O)[C@H](CCC(N)=O)NC(=O)[C@H](Cc2c[nH]c3ccccc23)NC(=O)[C@H](CC2CCC2)NC(=O)[C@H](CC(=O)O)NC1=O [compound 55, TSL6-SRCP{Nle}D {CbA}WQEC] (RCP[Nle]D[Cba]WQEC-NH2; linker N-2-10 via X3) | 3450 |  |
